Assay results taken from patent publication US20070004758A1, “COMPOSITIONS AND TREATMENTS FOR INHIBITING KINASE AND/OR HMG-COA REDUCTASE” (priority 2004, published 2007).
Counter-ions that a name gives are not always drawn.

Experiments:
[1] = test system: oxazolone-induced mouse ear swelling; assay: Model for inhibition of topical inflammation (oxazolone-induced mouse ear swelling); assay type: in vivo, BALB/c male mice; conditions: topical to right ear, ear thickness 24 hours after challenge
Method: Left ears were untreated. The thickness of both ears of each animal was measured with a Dyer model micrometer gauge 24 hours after oxazolone challenge, and the net increase in thickness of right ears versus left ears was calculated for each animal. Percent inhibition was calculated according to the formula: [(Iv−It)/Iv]×100, where Iv and It respectively refer to the average net increase in right ear thickness (mm) for vehicle and candidate compound treated mice.

[2] = test system: LPS-induced TNF-α release from human peripheral blood mononuclear cells; assay: Whole cell LPS-stimulated TNF-α release assay; assay type: cell-based; conditions: Table III; inhibition of LPS-induced TNF-α release from human PBMC by 50%
Method: The procedure as described in Welker et al., Int. Arch. Allergy and Immunol. 109:110-115 (1996) can be followed. Briefly, a candidate compound and/or vehicle can be preincubated with human peripheral blood mononuclear leukocytes (PBML, 5×10^5/ml) cells in AIM-V medium pH 7.4 for 2 hours. Lipopolysaccharide (LPS, 25 ng/ml) can be added to stimulate the cells, which can be incubated overnight at 37° C. TNF-α cytokine levels in the conditioned medium can then be quantitated using a sandwich ELISA kit.

Compound | % Inh. of oxazolone-induced mouse ear swelling ([1]; dose 2 × 0.3 mg) | IC50 [2] | % Inh. of oxazolone-induced mouse ear swelling ([1]; dose 2 × 1 mg) | % Inh. of oxazolone-induced mouse ear swelling ([1]; dose 2 × 2 mg)
CC(C)n1c(/C=C/C(O)CC(O)CC(=O)O)c(-c2ccc(F)cc2)c2ccccc21 (stereo not drawn) [Fluvastatin sodium] | 28% | – | – | –
O=C(O)C[C@H](O)C[C@H](O)/C=C/c1cnn(-c2ccnc(Nc3ccccc3)n2)c1-c1cccc(C(F)(F)F)c1 [Example 11g, (3R,5S,E)-3,5-dihydroxy-7-(1-(2-(phenylamino)pyrimidin-4-yl)-5-(3-(trifluoromethyl)phenyl)-1H-pyrazol-4-yl)hept-6-enoic acid calcium salt] | – | 52 µM | – | –
CC(C)c1c(C(=O)Nc2ccccc2)c(-c2ccccc2)c(-c2ccc(F)cc2)n1CC[C@@H](O)C[C@@H](O)CC(=O)O [Atorvastatin sodium] | 9% | – | 31% | 63%
O=C([O-])C[C@H](O)C[C@H](O)/C=C/c1c(C2CC2)nc2ccccc2c1-c1ccc(F)cc1.O=C([O-])C[C@H](O)C[C@H](O)/C=C/c1c(C2CC2)nc2ccccc2c1-c1ccc(F)cc1.[Ca+2] [Pitavastatin calcium] | 9% | – | – | 60%
O=C(O)C[C@H](O)C[C@H](O)/C=C/c1c(-c2ccccc2)nn(-c2ccnc(Nc3ccccc3)n2)c1-c1ccccc1 [Example 11a, (3R,5S,E)-7-(3,5-diphenyl-1-(2-(phenylamino)pyrimidin-4-yl)-1H-pyrazol-4-yl)-3,5-dihydroxyhept-6-enoic Acid Calcium Salt] | – | 31 µM | – | –
CC(C)c1nc(N(C)S(C)(=O)=O)nc(-c2ccc(F)cc2)c1/C=C/[C@@H](O)C[C@@H](O)CC(=O)O [Rosuvastatin sodium] | 20% | – | – | –
